The record followed here is ChEMBL document CHEMBL1137108, “Antiviral compounds from traditional Chinese medicines Galla Chinese as inhibitors of HCV NS3 protease” (Bioorg Med Chem Lett, 2004).

In this test the target is NS3 (Hepatitis C virus, UniProt A3EZJ3). Put plainly: Inhibitory activity against Hepatitis C virus NS3 protease by ELISA. Also on record: species or system Hepacivirus hominis. Background: ELISA stands for enzyme-linked immunosorbent assay.
Chain of NS3 (A3EZJ3 whole entry): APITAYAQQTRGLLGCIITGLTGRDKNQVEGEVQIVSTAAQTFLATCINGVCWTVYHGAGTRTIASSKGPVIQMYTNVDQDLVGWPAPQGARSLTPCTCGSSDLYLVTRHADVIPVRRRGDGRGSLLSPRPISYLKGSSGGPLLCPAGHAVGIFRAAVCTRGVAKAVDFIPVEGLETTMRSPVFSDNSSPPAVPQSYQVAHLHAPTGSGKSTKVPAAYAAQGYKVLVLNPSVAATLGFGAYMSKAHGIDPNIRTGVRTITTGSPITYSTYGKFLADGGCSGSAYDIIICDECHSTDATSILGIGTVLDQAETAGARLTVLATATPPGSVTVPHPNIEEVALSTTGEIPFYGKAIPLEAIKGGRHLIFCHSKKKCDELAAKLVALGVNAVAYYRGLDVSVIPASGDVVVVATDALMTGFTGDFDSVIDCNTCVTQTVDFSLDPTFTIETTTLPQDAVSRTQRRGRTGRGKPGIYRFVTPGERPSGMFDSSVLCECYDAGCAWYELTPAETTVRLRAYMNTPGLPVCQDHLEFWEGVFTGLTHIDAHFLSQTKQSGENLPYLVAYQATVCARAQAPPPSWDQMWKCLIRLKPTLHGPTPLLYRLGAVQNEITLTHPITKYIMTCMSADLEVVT
As for `O=C(OC[C@H]1O[C@@H](OC(=O)c2cc(O)c(O)c(O)c2)[C@H](OC(=O)c2cc(O)c(O)c(O)c2)[C@@H](OC(=O)c2cc(O)c(O)c(O)c2)[C@@H]1OC(=O)c1cc(O)c(O)c(O)c1)c1cc(O)c(O)c(O)c1` [PENTAGALLOYL GLUCOSE], the midpoint of inhibition, the IC50, lay at 1600 nM.
As for `O=C(OC[C@H]1O[C@H](OC(=O)c2cc(O)c(O)c(O)c2)[C@H](OC(=O)c2cc(O)c(O)c(O)c2)[C@@H](OC(=O)c2cc(O)c(O)c(O)c2)[C@@H]1O)c1cc(O)c(O)c(O)c1`, half-maximal inhibition (IC50) required 750 nM.
For `O=C(OC[C@H]1O[C@@H](OC(=O)c2cc(O)c(O)c(O)c2)[C@H](OC(=O)c2cc(O)c(O)c(O)c2)[C@@H](O)[C@@H]1O)c1cc(O)c(O)c(O)c1`, the midpoint of inhibition, the IC50, lay at 1890 nM.
